Literature values in patent US8435575B2, “Use of gingerols for cancer patients suffering from nausea and emesis induced by chemotherapy” (priority 2010, dated 2013).
“Also recorded” adds a separate entry of the source.

Experiments:
[1] = tested on: vection-induced motion sickness; conditions: college students with self-reported high susceptibility to motion sickness
[2] = tested on: post surgical nausea and vomiting; conditions: oral ginger, 1.25 mg intravenous droperidol; 24 hour period following surgery
[3] = tested on: post operative vomiting and nausea
[4] = tested on: post-operative nausea and vomiting

SMILES: CN(C)CCOC(c1ccccc1)c1ccccc1 [diphenhydramine]
- preventing gastrointestinal symptoms caused by vection-induced motion sickness, versus dried chickweed herb placebo [1]: more effective than dried chickweed herb placebo

SMILES: O=C(CCCN1CC=C(n2c(=O)[nH]c3ccccc32)CC1)c1ccc(F)cc1 [droperidol]
- statistically significant decrease in post-operative nausea or vomiting versus placebo [2]: no differences; also recorded: Neither drug showed a

SMILES: CCN(CC)CCNC(=O)c1cc(Cl)c(N)cc1OC [metochlopramide]
- post-operative nausea versus placebo ([3]; 1 gram ginger powder or metochlopramide one hour prior to anaesthesia, laparoscopic gynaecological surgery): significantly more effective than placebo
- patients nauseated ([3]; after laparoscopic gynaecological surgery, 41% with placebo): placebo, 27%
- frequency of emesis between the three arms ([3]; ginger vs metochlopramide vs placebo): no significant differences
- post-operative nausea and vomiting control versus placebo ([4]; 1.0 g ginger or 10 mg metochlopramide orally prior to gynecological surgery, P < .05): significantly more effective than placebo
- post-operative vomiting versus placebo ([4]; both active drugs vs placebo): less vomiting
